{"source": "patent US8883746B2", "about": "“α-galactosylceramide derivatives, pharmaceutically acceptable salts thereof, preparation method and pharmaceutical composition for the immune adjuvant containing the same as an active ingredient” (SNU R&DB Foundation, priority 2006, dated 2014)", "key": {"[1]": {"test_system": "DN32.D3 NKT hybridoma cells", "assay": "Stimulatory activity for NKT hybridoma cells (IL-2 secretion, ELISA)", "type": "cell-based, mouse", "conditions": "for Stimulatory effect (IL-2) compared to α-GalCer: low concentration (32 ng/mL); for IL-2 production compared to α-GalCer: mouse CD1d-bearing RBL cells loaded 4 hrs, co-incubated with DN32.D3 for 16 hrs, FIG. 1", "protocol": "Determination of Stimulatory Activity for NKT Hybridoma Cell (Zhou et al., Science, 306:1786-1789, 2004)\nMouse CD1d-bearing rat basophilic leukemia (RBL) cells were incubated with various concentrations of α-GalCer or the α-GalCer derivatives prepared in Examples for 4 hrs. After removing free glycolipids by washing with PBS (phosphate-buffer saline) three times, RBL cells were incubated with DN32.D3 NKT hybridoma cells for 16 hrs. IL-2 secretion levels in the supernatant were determined through ELISA (Enzyme-Linked Immunosorbent Assay)."}, "[2]": {"test_system": "Splenocytes from naïve C57BL/6 mice", "assay": "Cytokine levels (IFN-γ, IL-4) produced by mouse splenocytes, ELISA", "type": "cell-based", "conditions": "72 hrs; for IL-4 production compared with α-GalCer: FIG. 3(b) (2 ng/ml); for IL-4 secretion compared to α-GalCer: high concentrations (125 ng/ml), FIG. 3(a)", "protocol": "Evaluation of Cytokine Levels Produced by Mouse Splenocyte\nSplenocytes from naïve C57BL/6 mice were incubated with various concentrations of α-GalCer or α-GalCer derivatives for 72 hrs. IFN-γ and IL-4 secretion levels in the supernatant were determined through ELISA."}, "naïve C57BL/6 mice": {"test_system": "naïve C57BL/6 mice", "assay": "IFN-γ and IL-4 production level in vivo (serum, ELISA)", "conditions": "1 μg/mouse intravenously", "protocol": "Examination of IFN-γ and IL-4 Production Level In Vivo\nα-GalCer or the α-GalCer derivatives (1 μg/mouse) were intravenously injected into naïve C57BL/6 mice. The serum concentrations of IFN-γ and IL-4 at each time point were determined through ELISA."}, "NKT cells": {"test_system": "NKT cells", "conditions": "literature (Goff et al., 2004); cited from earlier work"}}, "data": [{"smiles": "CCCCCCCCCCCCCC[C@@H](O)[C@@H](O)[C@H](CO[C@H]1OC(CO)[C@H](O)[C@H](O)[C@H]1O)NC(=O)CCCCCCCCCCN(CCCCCCC)CCCCCCC", "note": "(stereo partly drawn) [Example 16, 11-(diheptylamino)-N-((2S,3S,4R)-3,4-dihydroxy-1-((2S,3R,4S,5R)-3,4,5-trihydroxy-6-(hydroxymethyl)-tetrahydro-2H-pyran-2-yloxy)octadecan-2-yl)undecanamide]", "values": [{"measurement": "Stimulatory effect (IL-2) compared to α-GalCer", "setting": "[1]", "result": "comparable stimulatory effects to α-GalCer"}, {"measurement": "IL-4 production compared with α-GalCer", "setting": "[2]", "result": "more IL-4 production compared with α-GalCer"}]}, {"smiles": "CCCCCCCCCCCCCC[C@@H](O)[C@@H](O)[C@H](CO[C@H]1OC(CO)[C@H](O)[C@H](O)[C@H]1O)n1cc(CCCCCC)nn1", "note": "(stereo partly drawn) [Example 1, (2S,3R,4S,5R)-2-((2S,3S,4R)-2-(4-hexyl-1H-1,2,3-triazol-1-yl)-3,4-dihydroxyoctadecyloxy)-6-(hydroxymethyl)-tetrahydro-2H-pyrane-3,4,5-triol]", "values": [{"measurement": "IL-2 production compared to α-GalCer", "setting": "[1]", "result": "ineffective"}]}, {"smiles": "CCCCCCCCCCCCCC[C@@H](O)[C@@H](O)[C@H](CO[C@H]1OC(CO)[C@H](O)[C@H](O)[C@H]1O)n1cc(CCCCCCCCc2ccccc2)nn1", "note": "(stereo partly drawn) [Example 9, (2S,3R,4S,5R)-2-((2S,3S,4R)-3,4-dihydroxy-2-(4-(8-phenyloctyl)-1H-1,2,3-triazol-1-yl)octadecyloxy)-6-(hydroxymethyl)-tetrahydro-2H-pyrane-3,4,5-triol]", "values": [{"measurement": "IL-2 production compared to α-GalCer", "setting": "[1]", "result": "ineffective"}]}, {"smiles": "CCCCCCCCCCCCCC[C@@H](O)[C@@H](O)[C@H](CO[C@H]1OC(CO)[C@H](O)[C@H](O)[C@H]1O)n1cc(CCCCCCC)nn1", "note": "(stereo partly drawn) [Example 2, (2S,3R,4S,5R)-2-((2S,3S,4R)-2-(4-heptyl-1H-1,2,3-triazol-1-yl)-3,4-dihydroxyoctadecyloxy)-6-(hydroxymethyl)-tetrahydro-2H-pyrane-3,4,5-triol]", "values": [{"measurement": "IL-2 production compared to α-GalCer", "setting": "[1]", "result": "ineffective"}, {"measurement": "IL-4 secretion compared to α-GalCer", "setting": "[2]", "result": "equivalent or greater IL-4 secretion than did α-GalCer"}]}, {"smiles": "CCCCCCCCCCCCCC[C@@H](O)[C@@H](O)[C@H](CO[C@H]1OC(CO)[C@H](O)[C@H](O)[C@H]1O)NC(=O)CCCCCCCCCCCN", "note": "(stereo partly drawn) [Example 11, 12-amino-N-((2S,3S,4R)-3,4-dihydroxy-1-((2S,3R,4S,5R)-3,4,5-trihydroxy-6-(hydroxymethyl)-tetrahydro-2H-pyran-2-yloxy)octadecan-2-yl)dodecanamide]", "values": [{"measurement": "Stimulatory effect (IL-2) compared to α-GalCer", "setting": "[1]", "result": "comparable stimulatory effects to α-GalCer"}, {"measurement": "IL-4 production compared with α-GalCer", "setting": "[2]", "result": "more IL-4 production compared with α-GalCer"}]}, {"smiles": "CCCCCCCCCCCCCCCCc1cn([C@@H](CO[C@H]2OC(CO)[C@H](O)[C@H](O)[C@H]2O)[C@H](O)[C@H](O)CCCCCCCCCCCCCC)nn1", "note": "(stereo partly drawn) [Example 3, (2S,3R,4S,5R)-2-((2S,3S,4R)-2-(4-hexadecyl-1H-1,2,3-triazol-1-yl)-3,4-dihydroxyoctadecyloxy)-6-(hydroxymethyl)-tetrahydro-2H-pyrane-3,4,5-triol]", "values": [{"measurement": "IL-2 production compared to α-GalCer", "setting": "[1]", "result": "not active in practice"}, {"measurement": "melting point", "result": "162 to 164", "unit": "°C"}]}, {"smiles": "CCCCCCCCCCCCCC[C@@H](O)[C@@H](O)[C@H](CO[C@H]1OC(CO)[C@H](O)[C@H](O)[C@H]1O)NC(=O)CCCCCCCCCCCO", "note": "(stereo partly drawn) [Example 13, N-((2S,3S,4R)-3,4-dihydroxy-1-((2S,3R,4S,5R)-3,4,5-trihydroxy-6-(hydroxymethyl)-tetrahydro-2H-pyran-2-yloxy)octadecan-2-yl)-12-hydroxydodecanamide]", "values": [{"measurement": "IL-4 production compared with α-GalCer", "setting": "[2]", "result": "more IL-4 production compared with α-GalCer"}]}, {"smiles": "CCCCCCCCCCCCCCCCCCCCCCCCCc1cn([C@@H](CO[C@H]2OC(CO)[C@H](O)[C@H](O)[C@H]2O)[C@H](O)[C@H](O)CCCCCCCCCCCCCC)nn1", "note": "(stereo partly drawn) [Example 6, (2S,3R,4S,5R)-2-((2S,3S,4R)-3,4-dihydroxy-2-(4-pentacosyl-1H-1,2,3-triazol-1-yl)octadecyloxy)-6-(hydroxymethyl)-tetrahydro-2H-pyrane-3,4,5-triol]", "values": [{"measurement": "melting point", "result": "165 to 167", "unit": "°C"}]}, {"smiles": "CCCCCCCCCCCCCCCCCCCCCCCCCC(=O)N[C@@H](CO[C@H]1O[C@H](CO)[C@H](O)[C@H](O)[C@H]1O)[C@H](O)[C@H](O)CCCCCCCCCCCCCC", "note": "[α-GalCer, α-Galactosylceramide]", "values": [{"measurement": "Time of peak of serum IFN-γ levels after administration", "setting": "naïve C57BL/6 mice", "result": 12, "unit": "h"}, {"measurement": "Time of rapid increase of serum IL-4 levels after administration", "setting": "naïve C57BL/6 mice", "result": "≤ 2", "unit": "h"}]}, {"smiles": "CCCCCCCCCCCCCCCCCCCCCCCCc1cn([C@@H](CO[C@H]2OC(CO)[C@H](O)[C@H](O)[C@H]2O)[C@H](O)[C@H](O)CCCCCCCCCCCCCC)nn1", "note": "(stereo partly drawn) [Example 5, (2S,3R,4S,5R)-2-((2S,3S,4R)-3,4-dihydroxy-2-(4-tetracosyl-1H-1,2,3-triazol-1-yl)octadecyloxy)-6-(hydroxymethyl)-tetrahydro-2H-pyrane-3,4,5-triol]", "values": [{"measurement": "Stimulatory effect (IL-2) compared to α-GalCer", "setting": "[1]", "result": "comparable stimulatory effects to α-GalCer"}, {"measurement": "IL-4 secretion compared to α-GalCer", "setting": "[2]", "result": "equivalent or greater IL-4 secretion than did α-GalCer"}, {"measurement": "melting point", "result": "167 to 169", "unit": "°C"}]}, {"smiles": "CCCCCCCCCCCCCC[C@@H](O)[C@@H](O)[C@H](CO[C@H]1OC(CO)[C@H](O)[C@H](O)[C@H]1O)n1cc(CCCCCCCc2ccccc2)nn1", "note": "(stereo partly drawn) [Example 8, (2S,3R,4S,5R)-2-((2S,3S,4R)-3,4-dihydroxy-2-(4-(7-phenylheptyl)-1H-1,2,3-triazol-1-yl)octadecyloxy)-6-(hydroxymethyl)-tetrahydro-2H-pyrane-3,4,5-triol]", "values": [{"measurement": "IL-2 production compared to α-GalCer", "setting": "[1]", "result": "ineffective"}]}, {"smiles": "CCCCCCCCCCCCCC[C@@H](O)[C@@H](O)[C@H](CO[C@H]1OC(CO)[C@H](O)[C@H](O)[C@H]1O)n1cc(CCCCCCc2ccccc2)nn1", "note": "(stereo partly drawn) [Example 7, (2S,3R,4S,5R)-2-((2S,3S,4R)-3,4-dihydroxy-2-(4-(6-phenylhexyl)-1H-1,2,3-triazol-1-yl)octadecyloxy)-6-(hydroxymethyl)-tetrahydro-2H-pyrane-3,4,5-triol]", "values": [{"measurement": "IL-2 production compared to α-GalCer", "setting": "[1]", "result": "ineffective"}]}, {"smiles": "CCCCCCCCCCCCCCCCCCCCCCCc1cn([C@@H](CO[C@H]2OC(CO)[C@H](O)[C@H](O)[C@H]2O)[C@H](O)[C@H](O)CCCCCCCCCCCCCC)nn1", "note": "(stereo partly drawn) [Example 4, (2S,3R,4S,5R)-2-((2S,3S,4R)-3,4-dihydroxy-2-(4-tricosyl-1H-1,2,3-triazol-1-yl)octadecyloxy)-6-(hydroxymethyl)-tetranydro-2H-pyrane-3,4,5-triol]", "values": [{"measurement": "IL-4 secretion compared to α-GalCer", "setting": "[2]", "result": "equivalent or greater IL-4 secretion than did α-GalCer"}]}, {"smiles": "CCCCCCCCCCCCCC[C@@H](O)[C@@H](O)[C@H](CO[C@H]1O[C@H](CO)[C@H](O)[C@H](O)[C@H]1O)NC(=O)CCCCCCC", "note": "[PBS-25]", "values": [{"measurement": "Secretion of Th2-cytokines compared to α-GalCer", "setting": "NKT cells", "result": "greater amount of Th2-cytokines, compared to α-GalCer"}]}, {"smiles": "CCCCCCCCCCCCCC[C@@H](O)[C@@H](O)[C@H](CO[C@H]1OC(CO)[C@H](O)[C@H](O)[C@H]1O)NC(=O)CCCCCCCCCCO", "note": "(stereo partly drawn) [Example 12, N-((2S,3S,4R)-3,4-dihydroxy-1-((2S,3R,4S,5R)-3,4,5-trihydroxy-6-(hydroxymethyl)-tetrahydro-2H-pyran-2-yloxy)octadecan-2-yl)-11-hydroxyundecanamide]", "values": [{"measurement": "Stimulatory effect (IL-2) compared to α-GalCer", "setting": "[1]", "result": "comparable stimulatory effects to α-GalCer"}]}]}
